Results published in patent USRE41253E1, “Antineoplastic combinations” (Wyeth, priority 2001, dated 2010).

Test system: HCT 116 colon adenocarcinoma cells
Assay: Cell Proliferation Procedure (SRB, three days)
Format: cell-based
Settings: for IC50: growth for 3 days, SRB, single agent, read-out: IC50 value, drug alone
Description: Cell Proliferation Procedure—HCT 116 colon adenocarcinoma cells were maintained in RPMI 1640 medium (Life Technologies, Inc., Gaithersburg, Md.) supplemented with 10% fetal bovine serum (FBS, Life Technologies) and 50 μg/ml gentamicin (Life Technologies) under 7% CO2 at 37° C. Cells were plated in 96-well microtiter dishes (6000 cells/well) in 200 μl RPMI 1640 medium containing 5% FBS and 50 μg/ml gentamicin and incubated overnight at 37° C. Compound dilutions were prepared in the same medium, at 5× final concentration, and 50 μl of the drug dilution was added to the cell-containing wells. For studies involving combinations of two drugs, serial dilutions of one compound were prepared in the presence of a fixed dose of a second compound. Alternatively, a checkerboard dilution series was employed. Cells were cultured for three days in the presence of the drugs. Untreated cells were included as controls. The percentage of surviving cells was determined using sulforhodamine B (SRB, Sigma-Aldrich, St Louis, Mo.), a protein binding dye. Cellular protein was precipitated in each well by the addition of 50 μl of 50% cold trichloroacetic acid. After 1 hour, the plates were washed extensively in water and dried. SRB dye reagent (0.4% SRB in 1% acetic acid, 80 μl per well) was added and plates were kept at room temperature for ten minutes. Plates were then washed thoroughly in 1% acetic acid and dried. Cell-associated dye was dissolved in 10 mM Tris (150 μl) and the absorbance was read at 540 nm in a microtiter plate reader. The concentration of compound that caused a fixed percentage inhibition of growth was determined by plotting cell survival (relative to untreated cells) against the compound dose.

[1] = Homo sapiens, HCT-116, 72 h, HCT116 cells

IC50 [1] [µg/mL] | SMILES | high doses that inhibit the cells (cells somewhat resistant) (HCT 116 cells, CCI-779 alone) [µg/mL] | inhibition at 0.026 µg/mL (Homo sapiens, HCT-116, 72 h, HCT116 cells, 3 days, 0.026 μg/ml CCI-779 alone) [%] | inhibition at 2.08 µg/mL (Homo sapiens, HCT-116, 72 h, HCT116 cells, 3 days, 2.08 μg/ml CCI-779 alone, read-out: inhibition of growth when administered alone) [%]
0.31 | CCOc1cc2ncc(C#N)c(Nc3ccc(F)c(Cl)c3)c2cc1NC(=O)C=CCN(C)C [EKB-569, 4-dimethylamino-but-2-enoic acid [4-(3-chloro-4-fluoro-phenylamino)-3-cyano-7-ethoxy-quinolin-6-yl]-amide] | – | – | –
4.3 | CO[C@H]1C[C@@H]2CC[C@@H](C)[C@@](O)(O2)C(=O)C(=O)N2CCCC[C@H]2C(=O)O[C@H]([C@H](C)C[C@@H]2CC[C@@H](OC(=O)C(C)(CO)CO)[C@H](OC)C2)CC(=O)[C@H](C)/C=C(\C)[C@@H](O)[C@@H](OC)C(=O)[C@H](C)C[C@H](C)/C=C/C=C/C=C/1C [CCI-779, rapamycin 42-ester with 3-hydroxy-2-(hydroxymethyl)-2-methylpropionic acid] | 5 to 10 | 36 | 41
